Measured values as given in patent US11712430B2, “Formulated cannabis oil powder by nanoemulsification, methods of producing and uses thereof” (KARNAK TECHNOLOGIES, LLC, priority 2018, dated 2023).

Test: Complete dissolution of agents to obtain the aqueous phase
Type: physicochemical
Conditions: as in Example 1, Stage 1
Procedure: 0.25 gr ammonium glycyrrhizinate, (Sigma, 50531-50G, cas: 53956-04-0), 2 gr Maltodextrin, (Sigma, 419699-500G, cas: 9050-36-6), 2 gr sucrose, (Sigma, 59378-500G, cas: 57-50-1) and 14.3 gr triple distilled water (TDW) were mixed using a magnetic stirrer for 10 min at 35-40° C. until a complete dissolution and acquisition of an aqueous solution.
It should be noted that among the various selected agents used for the preparation of the various formulations of the invention so far, cyclodextrin was proven to be incompatible in terms of a complete dissolution to obtain the aqueous phase as in Example 1, Stage 1.

cyclodextrin
compatibility in terms of a complete dissolution to obtain the aqueous phase: incompatible
